Read-outs that look alike come from different tables or passages of the source.
What was measured:
[1] = system: clinical staphylococci; test: MIC screening, summary for clinical staphylococci; assay type: cell-based; settings: range over clinical staphylococci, one strain excepted
Description: (§1) A comparative assessment of the spectrum of antibacterial action was carried out on archival and clinical strains of gram-positive and gram-negative microorganisms in accordance with the [Opredeleniye chuvstvitel'nosti mikroorganizmov k antibakterial'nym preparatam (Metodicheskiye ukazaniya MUK 4.2.1890-04). Utverzhdeny i vvedeny v deystviye Glavnym gosudarstvennym sanitarnym vrachom Rossiyskoy Federatsii G. G. Onishchenko 04.03.2004 g. Determination of the sensitivity of microorganisms to antibacterial drugs (Guidelines MUK 4.2.1890-04). Approved and put into effect by the Chief State Sanitary Doctor of the Russian Federation G. G. Onishchenko on 4 Mar. 2004].
(§2) The value of the minimum inhibitory concentration (MIC) was determined by the method of serial dilutions on Müller-Hinton broth using 96-well sterile plates. […] The growth of cultures was assessed visually, comparing the growth of microorganisms in the presence of test compounds with the growth of culture without them. […] The first lowest concentration of the studied substance (from a series of consecutive dilutions), where bacterial growth is not visually determined, is considered to be the minimum inhibitory concentration (MIC). MIC was determined by the method of serial dilutions in broth with increment=2, so the differences of neighboring dilutions are not considered to be significant. […]

[2] = system: all bacterial strains; test: MIC screening, summary for all bacterial strains; assay type: cell-based
Description: as §1, §2

[3] = system: gram-negative bacteria; test: MIC screening, summary for gram-negative bacteria; assay type: cell-based
Description: as §1
The value of the minimum inhibitory concentration (MIC) was determined by the method of serial dilutions on Müller-Hinton broth using 96-well sterile plates. Two-fold dilutions of the test substances in a nutrient medium were prepared. The final concentrations were 1-128 ug/ml. The growth of cultures was assessed visually, comparing the growth of microorganisms in the presence of test compounds with the growth of culture without them. […] The first lowest concentration of the studied substance (from a series of consecutive dilutions), where bacterial growth is not visually determined, is considered to be the minimum inhibitory concentration (MIC). MIC was determined by the method of serial dilutions in broth with increment=2, so the differences of neighboring dilutions are not considered to be significant. In each experience there is a positive (broth with growing culture) and a negative (broth without growing culture) control.
To determine the MIC, 10 μl of culture medium was taken from those wells in which growth was not observed, and inoculation was performed on a dense Müller-Hinton broth. For the preparation of the inoculum, a pure, daily culture of gram-positive and gram-negative microorganisms grown on a dense nutrient medium was used. Nutrient medium is Müller-Hinton broth, which was prepared from dry media (Müller-Hinton broth, Acumedia, Baltimore), cultivation was carried out on agarized Müller-Hinton broth, including an additional 2% agar. The media were autoclaved at 121° C. for 15 minutes. […] The inoculum was used within 15 minutes after preparation; the purity of the bacterial strains was monitored before each experiment.
100 μl of Müller-Hinton broth was added to the wells of each plate; The tested substance was introduced into the first well at a concentration of 128 μg/ml in a volume of 100 μl and its concentration was adjusted to 0.5 μg/ml by consecutive two-fold dilution. […] In addition, the purity of nutrient media and solvents was monitored. […] The growth of cultures was assessed visually, comparing the growth of microorganisms in the presence of test compounds with the growth of culture without them. […]

[4] = system: clinical enterococci; test: MIC screening, summary for clinical enterococci; assay type: cell-based; settings: range over clinical enterococci
Description: as §1, §2

[5] = Acute toxicity in mice after intragastric administration; assay type: in vivo; settings: both sexes, mouse, in vivo, po; Mice CD-1, intragastric administration; read-out: LD50 (95% confidence interval)
Description: (§3) The study was performed on mice of the CD-1 (ICR) line (6-8 weeks, weight not less than 18 g) of both sexes. […] Mice administered doses were 3000 mg/kg, 2000 mg/kg, 1000 mg/kg, 500 mg/kg and 50 mg/kg.

[6] = system: mice of the CD-1 (ICR) line; test: as above; assay type: in vivo
Description: as §3

[7] = system: E. coli in the biofilm; test: Antibacterial activity against cells immersed in a biofilm matrix (CFU, drop plate); assay type: cell-based
Description: (§4) To determine the effectiveness of the antibiotic against bacteria in […], bacteria were grown in Basal medium for 3 days at a temperature of 37° C. without swinging to obtain a dense biofilm [A. R Kayumov, Khakimullina E., Sharafutdinov I, Trizna E., Latypova L., Lien Thi, Margulis A., Bogachev M, Kurbangalieva A. Inhibition of biofilm formation in Bacillus subtilis by new halogenated furanoses. J. Antibiotics.—2014.—V. 68.—No 5.—P. 297-301.]. Then the biofilm was washed with a sterile 0.9% NaCl solution and fresh sterile medium was poured. Antiseptics were added to concentrations (1-16)×MBC (minimum bactericidal concentration) and incubated for 24 hours. Then the culture fluid was removed from the wells, washed once with 0.9% NaCl solution to remove non-adherent cells, and cell viability in biofilms was evaluated by counting CFU by Drop plate analysis [B. Herigstad, M Hamilton, J. Heersink How to optimize the drop plate method for enumerating bacteria. J Microbiol Methods.—2001.—V. 44.—P. 121-129]. To do this, the biofilm was mechanically removed from the surface and homogenized in 0.9% NaCl by pipetting and ultrasonic treatment. Then, serial 10-fold dilutions of the bacterial suspension in 0.9% NaCl were prepared, and 5 μI of each suspension were transferred to plates with dense nutrient medium. CFU was counted from drops containing 5-10 colonies.
(§5) The results of the study of antimicrobial activity against cells of the studied strains immersed in the biofilm matrix, in comparison with miramistin and benzalkonium chloride, are presented in FIGS. 1 and 2.

[8] = system: S.marcescens in the biofilm; test: as above; assay type: cell-based
Description: as §4, §5

[9] = system: K. pneumonia in the biofilm; test: as above; assay type: cell-based
Description: as §4, §5

[10] = both, CD-1 (ICR), mouse, in vivo

In the case of `CCCCCCCCCCCC[N+](C)(C)Cc1cnc(C[N+](C)(C)CCCCCCCCCCCC)c2c1COC(CC)O2` (stereo not drawn) [Compound I, 5,8-(Bis(methylene (N, N-dimethyl-N-dodecylammonium))-2-ethyl-4H-[1,3]dioxino [4,5-c]pyridiniumdichloride], the MIC [1] is reported as 1 to 8 µg/mL, the MIC ([2]; read-out: MIC100) is reported as < 64 µg/mL and the MIC ([3]; in 11 strains) is reported as 2 to 4 µg/mL. For the same compound, the MIC ([3]; in 12 strains) was 32 to 64 µg/mL, the MIC ([3]; in 18 strains) was 8 to 16 µg/mL and the “MIC for clinical enterococci” value [4] was 0.03 to 4 µg. The LD50 [5] was 1710 mg/kg, the “hazard class in accordance with GOST 12.1.007-76” value ([6]; acute toxicity, oral, mice) was 3rd class of moderately hazardous harmful substances and the “toxicity class according to the Globally Harmonized System (GOST 32644-2014)” value ([6]; acute toxicity, oral, mice) was 4th toxicity class. The LD16 [6, 10] was 788 mg/kg, the LD86 [6, 10] was 2623 mg/kg and the “Number of died animals in the group” value ([6]; both, CD-1 (ICR), mouse, in vivo, 50 mg/kg) was 0/6. For the same compound, the “Number of died animals in the group” value ([6]; both, CD-1 (ICR), mouse, in vivo, 500 mg/kg) was 0/6, the “Number of died animals in the group” value ([6]; both, CD-1 (ICR), mouse, in vivo, 1000 mg/kg) was 3/6 and the “Number of died animals in the group” value ([6]; both, CD-1 (ICR), mouse, in vivo, 2000 mg/kg) was 5/10. The “Number of died animals in the group” value ([6]; both, CD-1 (ICR), mouse, in vivo, 3000 mg/kg) was 4/4, the “activity in the biofilm compared with comparison antiseptics” value [7] was “the same activity as miramistine and benzalconium chloride” and the “activity in the biofilm compared with comparison antiseptics” value [8] was “the same activity as miramistine and benzalconium chloride”. For the same compound, the “activity in the biofilm compared with comparison antiseptics” value [9] was “the same activity as miramistine and benzalconium chloride”.

For `CCCCCCCCCCCCCC(=O)NCCC[N+](C)(C)Cc1ccccc1.O.[Cl-]` [Miramistin, benzyldimethyl [3-(myristoylamino)propyl]-ammonium chloride monohydrate], the MIC ([2]; all bacterial strains, read-out: MIC89) was < 64 µg/mL and the MIC ([3]; Escherichia coli, ATCC25922, range, with the exception for the archival strain E. coli ATCC 25922) was 32 to 64 µg/mL.
